This note sets out measurements from US20100184684A1, “ANTIBACTERIAL AND ANTIFUNGAL PEPTIDES” (C3 JIAN, INC., priority 2009, published 2010).

In brackets after ≈: the same amount, converted by molar mass. Like-named read-outs stand apart in the source and are kept apart here. Peptide text beside a SMILES is read from it.

One assay has as its system B. subtilis. Type of assay: cell-based, Bacillus subtilis. How it is done:
(§1) In certain embodiments the MIC assays are performed as described herein in the Examples. For each organism, the media and growth conditions utilized is detailed in Table 8.
(§2) In certain embodiments the MIC assays are performed as follows: For each organism, the media and growth conditions utilized is detailed in Table 8.

For another assay, the system named is A. niger. The format is cell-based, Aspergillus niger. The method, then: as §1, §2
For a further assay, the system named is MRSA. The format is cell-based, Staphylococcus aureus. How it is done: as §1, §2
In a further assay the test system is T. rubrum. Type of assay: cell-based, Trichophyton rubrum. The method, then: as §1, §2
The subject of the next assay is S. pneumoniae. The format is cell-based, Streptococcus pneumoniae. The method, then:
as §1, §2

The next assay relates to S. epidermidis. The format is cell-based. How it is done: as §1, §2
Where [1] appears, read: S. pneumoniae, TSB supplemented with 5% yeast extract, 37° C., 10% CO2, 10^6 CFU/ml.

Usually MIC stands for the lowest concentration that inhibits growth of the organism. Read a high MIC as weaker potency.

For `CSCC[C@H](NC(=O)[C@H](CCCNC(=N)N)NC(=O)[C@H](CCCNC(=N)N)NC(=O)[C@H](CC(C)C)NC(=O)[C@H](CCCNC(=N)N)NC(=O)[C@H](CCC(=O)O)NC(=O)[C@@H](NC(=O)[C@H](CS)NC(=O)CNC(=O)[C@H](CCCNC(=N)N)NC(=O)[C@@H](N)CCCNC(=N)N)[C@@H](C)O)C(=O)N[C@@H](C)C(=O)N[C@@H](CCCNC(=N)N)C(=O)N[C@@H](CCCNC(=N)N)C(=O)N[C@@H](CC(N)=O)C(=O)N[C@@H](C)C(=O)N[C@@H](Cc1c[nH]c2ccccc12)C(=O)N[C@@H](CC(=O)O)C(=O)N[C@@H](CC(C)C)C(=O)N[C@@H](Cc1ccc(O)cc1)C(=O)N[C@@H](C)C(=O)N[C@@H](CCC(=O)O)C(=O)N[C@@H](Cc1c[nH]cn1)C(=O)N[C@@H](Cc1ccccc1)C(=O)N[C@@H](Cc1ccc(O)cc1)C(=O)O` [PF-148] (H-RRGCTERLRRMARRNAWDLYAEHFY-OH; N-terminus and C-terminus assumed), the minimal inhibitory concentration (MIC) against B. subtilis and with A. niger was 50 µM (≈ 161 µg/mL) in each case.

Take `CC[C@H](C)[C@H](NC(=O)[C@H](C)NC(=O)[C@@H]1CCCN1C(=O)[C@H](Cc1ccccc1)NC(=O)[C@@H]1CCCN1C(=O)[C@H](CC(C)C)NC(=O)[C@@H](N)C(C)C)C(=O)N1CCC[C@H]1C(=O)N[C@@H](CC(C)C)C(=O)N[C@@H](CO)C(=O)N[C@@H](CCCNC(=N)N)C(=O)N[C@@H](CCCNC(=N)N)C(=O)N[C@@H](CCCNC(=N)N)C(=O)N[C@@H](C)C(=O)N[C@@H](CS)C(=O)N[C@H](C(=O)N[C@@H](C)C(=O)N[C@@H](C)C(=O)N1CCC[C@H]1C(=O)N[C@@H](CCCNC(=N)N)C(=O)N1CCC[C@H]1C(=O)N[C@@H](CCCNC(=N)N)C(=O)N[C@@H](CO)C(=O)N[C@@H](CCCNC(=N)N)C(=O)N[C@@H](CCC(N)=O)C(=O)N[C@@H](CCCNC(=N)N)C(=O)N[C@@H](C)C(=O)N[C@@H](CO)C(=O)O)C(C)C` [PF-168] (H-VLPFPAIPLSRRRACVAAPRPRSRQRAS-OH; N-terminus and C-terminus assumed): the minimal inhibitory concentration (MIC) against A. niger, in the assay on MRSA and with T. rubrum was 50 µM (≈ 156 µg/mL) in each case.

Molecule `CC(C)[C@H](NC(=O)[C@H](C)NC(=O)[C@H](Cc1ccc(O)cc1)NC(=O)[C@@H](N)CC(N)=O)C(=O)N[C@H](C(=O)N[C@@H](CO)C(=O)N[C@@H](Cc1c[nH]cn1)C(=O)N[C@H](C(=O)O)[C@@H](C)O)C(C)C` [PF-209] (H-NYAVVSHT-OH; N-terminus and C-terminus assumed) yielded an MIC in the assay on MRSA of 50 µM (≈ 44.5 µg/mL).

For `CC(C)C[C@H](NC(=O)[C@H](CCC(N)=O)NC(=O)[C@H](CO)NC(=O)[C@H](CCC(N)=O)NC(=O)[C@H](CC(C)C)NC(=O)[C@@H](N)CO)C(=O)NCC(=O)N1CCC[C@H]1C(=O)N[C@@H](CS)C(=O)N[C@@H](CC(C)C)C(=O)N[C@@H](Cc1c[nH]cn1)C(=O)N[C@@H](CC(=O)O)C(=O)N[C@@H](CCC(N)=O)C(=O)N[C@@H](CCCNC(=N)N)C(=O)N[C@@H](Cc1c[nH]cn1)C(=O)O` [PF-448] (H-SLQSQLGPCLHDQRH-OH; N-terminus and C-terminus assumed), the minimum inhibitory concentration (MIC) in the assay on A. niger was found to be 25 µM (≈ 43 µg/mL); in the assay on S. pneumoniae, 50 µM (≈ 85.9 µg/mL).

For the molecule `CC[C@H](C)[C@H](NC(=O)[C@H](Cc1ccccc1)NC(=O)[C@@H](NC(=O)[C@H](Cc1ccccc1)NC(=O)[C@H](CC(C)C)NC(=O)[C@H](CC(=O)O)NC(=O)[C@@H](NC(=O)[C@H](CS)NC(=O)[C@@H](NC(=O)[C@H](CCCNC(=N)N)NC(=O)[C@H](CC(C)C)NC(=O)[C@@H](NC(=O)[C@@H](N)CC(C)C)C(C)C)[C@@H](C)CC)[C@@H](C)O)[C@@H](C)O)C(=O)N[C@@H](CCCCN)C(=O)N[C@@H](Cc1c[nH]c2ccccc12)C(=O)N[C@H](C(=O)N[C@H](C(=O)N[C@@H](CCCCN)C(=O)N[C@@H](CCC(N)=O)C(=O)N[C@@H](CCCNC(=N)N)C(=O)N[C@@H](CCCCN)C(=O)N[C@@H](CO)C(=O)O)[C@@H](C)CC)[C@@H](C)O` [PF-497] (H-LVLRICTDLFTFIKWTIKQRKS-OH; N-terminus and C-terminus assumed), in the assay on B. subtilis, the minimal inhibitory concentration (MIC) stood at 50 µM (≈ 136 µg/mL).

For the molecule `CC[C@H](C)[C@H](NC(=O)[C@H](CC(C)C)NC(=O)[C@@H]1CCCN1C(=O)[C@@H]1CCCN1C(=O)[C@H](CCCCN)NC(=O)[C@@H](NC(=O)[C@H](Cc1ccc(O)cc1)NC(=O)[C@H](CC(C)C)NC(=O)[C@H](CO)NC(=O)[C@H](CCC(N)=O)NC(=O)[C@H](CCSC)NC(=O)[C@@H](N)C(C)C)C(C)C)C(=O)N[C@@H](CC(C)C)C(=O)N[C@H](C(=O)N[C@H](C(=O)N[C@@H](CCCCN)C(=O)N[C@@H](CC(C)C)C(=O)N[C@@H](C)C(=O)N[C@@H](CCC(N)=O)C(=O)N[C@@H](CCC(N)=O)C(=O)N[C@@H](CC(N)=O)C(=O)O)[C@@H](C)O)C(C)C` [PF-511] (H-VMQSLYVKPPLILVTKLAQQN-OH; N-terminus and C-terminus assumed), the MIC in the assay with S. pneumoniae (setting [1]) was found to be 50 µM (≈ 119 µg/mL).

As to `CC[C@H](C)[C@H](NC(=O)[C@H](CCC(=O)O)NC(=O)[C@@H]1CCCN1C(=O)[C@H](CCSC)NC(=O)[C@H](Cc1ccccc1)NC(=O)[C@@H](N)CO)C(=O)N[C@@H](CCC(N)=O)C(=O)N[C@@H](CCCCN)C(=O)N[C@@H](CC(N)=O)C(=O)N[C@H](C(=O)N[C@H](C(=O)N1CCC[C@H]1C(=O)N[C@H](C(=O)N[C@@H](CCC(N)=O)C(=O)N[C@@H](CCSC)C(=O)N[C@@H](CCCCN)C(=O)O)[C@@H](C)O)[C@@H](C)CC)[C@@H](C)O` [PF-512] (H-SFMPEIQKNTIPTQMK-OH; N-terminus and C-terminus assumed), the MIC against S. pneumoniae (setting [1]) stood at 50 µM (≈ 94.7 µg/mL).

Molecule `CC(C)C[C@H](NC(=O)CNC(=O)[C@@H](N)CC(C)C)C(=O)N[C@H](C(=O)N[C@@H](C)C(=O)NCC(=O)N[C@H](C(=O)N[C@@H](C)C(=O)N[C@@H](Cc1ccc(O)cc1)C(=O)N[C@@H](C)C(=O)N[C@@H](C)C(=O)N[C@@H](CCC(N)=O)C(=O)N1CCC[C@H]1C(=O)N[C@H](C(=O)N[C@@H](CC(N)=O)C(=O)N[C@@H](CCC(N)=O)C(=O)N1CCC[C@H]1C(=O)N[C@H](C(=O)N[C@@H](CC(N)=O)C(=O)N[C@@H](CCC(N)=O)C(=O)N1CCC[C@H]1C(=O)N[C@H](C(=O)N[C@@H](CC(N)=O)C(=O)N[C@@H](CCC(N)=O)C(=O)N1CCC[C@H]1C(=O)N[C@H](C(=O)N[C@@H](CC(N)=O)C(=O)N[C@@H](CCC(N)=O)C(=O)N1CCC[C@H]1C(=O)N[C@H](C(=O)N[C@@H](CC(N)=O)C(=O)N[C@@H](CCC(N)=O)C(=O)N1CCC[C@H]1C(=O)N[C@H](C(=O)N[C@@H](CC(N)=O)C(=O)N[C@@H](CCC(N)=O)C(=O)N1CCC[C@H]1C(=O)N[C@@H](CCCNC(=N)N)C(=O)N[C@@H](Cc1c[nH]c2ccccc12)C(=O)O)[C@@H](C)O)[C@@H](C)O)[C@@H](C)O)[C@@H](C)O)[C@@H](C)O)[C@@H](C)O)C(C)C)[C@@H](C)O` [PF-520] (H-LGLTAGVAYAAQPTNQPTNQPTNQPTNQPTNQPTNQPRW-OH; N-terminus and C-terminus assumed) came in with an MIC against S. pneumoniae (setting [1]) of 50 µM (≈ 211 µg/mL).

`CC(C)C[C@H](NC(=O)[C@H](CC(C)C)NC(=O)[C@H](Cc1c[nH]cn1)NC(=O)[C@H](CC(N)=O)NC(=O)[C@H](CCCCN)NC(=O)[C@H](CC(C)C)NC(=O)[C@H](CO)NC(=O)[C@H](CCCNC(=N)N)NC(=O)[C@H](CO)NC(=O)[C@H](C)NC(=O)[C@H](CCC(N)=O)NC(=O)[C@H](CCCCN)NC(=O)[C@H](CO)NC(=O)[C@H](C)NC(=O)[C@H](CCC(N)=O)NC(=O)[C@H](CCCCN)NC(=O)[C@H](CO)NC(=O)[C@H](C)NC(=O)[C@H](CCC(N)=O)NC(=O)[C@H](CCCCN)NC(=O)[C@H](CO)NC(=O)[C@H](C)NC(=O)[C@H](CCC(N)=O)NC(=O)[C@H](CCCCN)NC(=O)[C@H](CO)NC(=O)[C@H](C)NC(=O)[C@H](CCC(N)=O)NC(=O)[C@H](CCCCN)NC(=O)[C@H](CO)NC(=O)[C@H](C)N)C(=O)O` [PF-523] (H-ASKQASKQASKQASKQASKQASRSLKNHLL-OH; N-terminus and C-terminus assumed) came in with an MIC in the assay on S. pneumoniae of 50 µM (≈ 161 µg/mL). This lies in the double-digit micromolar range.

On to `CSCC[C@H](NC(=O)[C@H](CCC(=O)O)NC(=O)[C@H](CO)NC(=O)[C@@H](N)CC(C)C)C(=O)N[C@@H](CCC(=O)O)C(=O)N[C@@H](CCCNC(=N)N)C(=O)N[C@@H](CCCNC(=N)N)C(=O)N[C@@H](CCCNC(=N)N)C(=O)N[C@@H](CC(C)C)C(=O)N[C@@H](CCCNC(=N)N)C(=O)N[C@@H](CCCCN)C(=O)N[C@@H](CCCNC(=N)N)C(=O)N[C@@H](C)C(=O)O` [PF-529] (H-LSEMERRRLRKRA-OH; N-terminus and C-terminus assumed), for which the MIC with A. niger and against S. pneumoniae was 50 µM (≈ 85.1 µg/mL) throughout.

Regarding `CC[C@H](C)[C@H](NC(=O)[C@H](CC(N)=O)NC(=O)[C@@H](NC(=O)[C@H](Cc1ccccc1)NC(=O)[C@H](CCC(=O)O)NC(=O)CNC(=O)[C@H](CCC(N)=O)NC(=O)[C@H](Cc1ccccc1)NC(=O)[C@@H](N)CCCCN)[C@@H](C)O)C(=O)NCC(=O)N[C@@H](CCC(N)=O)C(=O)N[C@@H](CO)C(=O)N[C@@H](Cc1ccc(O)cc1)C(=O)N[C@H](C(=O)N[C@H](C(=O)N[C@@H](CO)C(=O)N[C@@H](C)C(=O)N[C@@H](CO)C(=O)N[C@@H](Cc1c[nH]cn1)C(=O)N[C@@H](CCSC)C(=O)N[C@@H](CO)C(=O)N[C@H](C(=O)N[C@@H](CO)C(=O)N[C@@H](CC(C)C)C(=O)N[C@@H](CC(N)=O)C(=O)N[C@H](C(=O)NCC(=O)N[C@@H](CCCCN)C(=O)O)[C@@H](C)O)[C@@H](C)O)C(C)C)[C@@H](C)CC` [PF-583] (H-KFQGEFTNIGQSYIVSASHMSTSLNTGK-OH; N-terminus and C-terminus assumed), the MIC against S. epidermidis and with MRSA was 50 µM (≈ 152 µg/mL) each time.
